Results from BindingDB's records for doi:10.1016/j.bmcl.2005.10.026 (Pfizer, 2005).

How the values were obtained:
[1] = Inhibition of C5a mediated human eosinophil chemotaxis
[2] = Inhibition of PAF mediated human eosinophil chemotaxis
[3] = Inhibition of Eotaxin mediated by human eosinophil chemotaxis

IC50 (Inhibition of PDE4D): < 1 nM
IC50 [1]: 1 nM
IC50 [2]: 1 nM
IC50 [3]: 3 nM
SMILES: C[C@@H](NC(=O)c1cccnc1Oc1ccc(F)cc1)c1cccs1 [(R)-2-(4-fluorophenoxy)-N-(1-(thiophen-2-yl)ethyl)nicotinamide]
